The text below walks through data of ChEMBL document CHEMBL1151358, “Doridosine, 1-methylisoguanosine, from Anisodoris nobilis; structure, pharmacological properties and synthesis” (1981).

Assay [1] in a line: Inhibition of guinea pig atrial contraction at 5 uM. It counts as functional. Particulars: Cavia porcellus, Cardiac atrium.
A short description of assay [2]: Inhibition of guinea pig atrial contraction at 20 uM. The assay is classed as functional. Particulars: Cavia porcellus, Cardiac atrium.
A short description of assay [3]: Inhibition of guinea pig atrial contraction at 14 uM. It counts as functional. The following applies: Cavia porcellus, Cardiac atrium.
Assay [4] in a line: Inhibition of guinea pig atrial contraction at 5 uM in presence of 10 uM/L theophylline. It counts as functional, Cavia porcellus, Cardiac atrium.
Assay [5] can be described thus: Inhibition of guinea pig atrial contraction at 20 uM in presence of 10 uM/L theophylline. The assay is classed as functional, Cavia porcellus, Cardiac atrium.
Assay [6] can be described thus: Inhibition of guinea pig atrial contraction at 20 uM in presence of 100 uM/L theophylline. The assay is classed as functional, Cavia porcellus, Cardiac atrium.
The nature of assay [7]: Inhibition of guinea pig atrial contraction at 5 uM in presence of 100 uM/L theophylline. It counts as functional, Cavia porcellus, Cardiac atrium.

Usually inhibition stands for the relative decrease from the control value, in per cent. Low values mean little suppression, high ones strong suppression.

In assay [1], `Cn1c(=O)[nH]c2c(ncn2[C@@H]2O[C@H](CO)[C@@H](O)[C@H]2O)c1=N` gave an inhibition at 5 µM of 65%. Moreover, in assay [2], 20 µM produced 45.2% inhibition. This molecule also displayed an inhibition at 14 µM in assay [3] of 50%. Moreover, the “inhibition (INH)” value in assay [4] is 83%; in assay [5] it was 95%; in assay [6], 82%; in assay [7] it was 64%.
